Results as given in US9434822B2, “Block copolymer, micelle preparation, and anticancer agent containing the same as active ingredient” (Nippon Kayaku Kabushiki Kaisha, priority 2004, dated 2016).

Columns and labels:
[1] = test system: Mouse colon cancer Colon 26 cells; test: In vivo antitumor effect on Colon 26; details: i.v. 3 times at 4-day intervals, Day 11 after administration
Experimental: Mouse colon cancer Colon 26 cells were transplanted subcutaneously in the back of female CDF1 mouse, and after the volume of the tumor reached about 100 mm^3, the micelle preparation of Example 4, or paclitaxel alone as the control drug, was administered via a mouse caudal vein into the mouse 3 times at 4-day intervals, to examine the effect thereof on advanced cancer. The micelle preparation had been diluted with 5% glucose solution to form a solution containing paclitaxel at a concentration of 3 mg/mL. Paclitaxel for use as the sole regimen was dissolved in ethanol and mixed with an equal volume of Cremophor (manufactured by Sigma) to prepare a solution containing paclitaxel at a concentration of 30 mg/mL, and the resulting preparation was diluted with physiological saline to 3 mg/mL just before administration. The antitumor effect of each drug was judged in percentage (T/C %) of the average tumor volume of the group which was given the drug on Day 11 after administration, relative to the average tumor volume of the group which was not given the drug. A lower numerical value is indicative of higher effect.

[2] = Paclitaxel levels in mouse plasma; format: in vivo; details: female, intravenous, 50 mg/kg i.v., Colon 26-bearing CDF1 mice
Experimental: (§1) Each drug was prepared according to the same method as in Test Example 2 (in vivo antitumor effect on Colon 26). A micelle preparation containing paclitaxel, or paclitaxel alone, each at a dose level of 50 mg/kg, was administered via a mouse caudal vein into female CDF1 mouse transplanted with mouse colon cancer Colon 26 in the back, and after a predetermined time, whole blood was collected through an armpit artery. 0.01 mL of plasma obtained by centrifugation was deproteinized (3 times) with 0.2 mL of water and 1 mL of acetonitrile and then subjected to liquid/liquid extraction by adding 2 mL of t-butyl methyl ether. The organic layer was recovered, evaporated into dryness, dissolved in 0.4 mL of dissolving liquid for HPLC, and measured for its paclitaxel concentration by HPLC. Separately, the tumor was homogenized with 0.5% acetic acid to prepare 1% tumor homogenate, and 0.1 mL of 1% tumor homogenate was deproteinized (3 times) with 0.1 mL of water and 1 mL of acetonitrile and subjected to liquid/liquid extraction by adding 2 mL of t-butyl methyl ether. The organic layer was concentrated and dissolved in 0.4 mL of dissolving liquid for HPLC and measured for its paclitaxel concentration by HPLC.

[3] = Paclitaxel levels in mouse tumor; format: in vivo; details: female, CDF1, mouse, tumor (Colon 26), intravenous, 50 mg/kg i.v., Colon 26 tumor
Experimental: as §1

[4] = test system: female CDF1 mice; test: Observation of peripheral nerve damage to mice (stretch reflex); format: in vivo, mouse; details: 30 mg/kg in terms of paclitaxel, i.v. for 5 consecutive days, hind limb
Experimental: The micelle preparation of the present invention, or paclitaxel alone, was administered via a mouse caudal vein to female CDF1 mice for 5 consecutive days, and the stretch reflex of the mouse hind limb was observed as an indicator of the peripheral nerve damage caused by paclitaxel. Each drug was prepared in the same manner as in Test Example 2 (in vivo antitumor effect on Colon 26). The dose was 30 mg/kg in terms of paclitaxel.

CC(=O)O[C@H]1C(=O)[C@@]2(C)[C@H]([C@H](OC(=O)c3ccccc3)[C@]3(O)C[C@H](OC(=O)[C@H](O)[C@@H](NC(=O)c4ccccc4)c4ccccc4)C(C)=C1C3(C)C)[C@]1(OC(C)=O)CO[C@@H]1C[C@@H]2O [Paclitaxel alone, paclitaxel]
T/C % (average tumor volume relative to group not given the drug) ([1]; dose 50 mg/kg): 81.6%
T/C % (average tumor volume relative to group not given the drug) ([1]; dose 100 mg/kg): 52.6%
concentration at 0.083 h ([2]; 0.083 hours): 59300 ng/mL
concentration at 0.5 h ([2]; 0.5 hours): 31900 ng/mL
concentration at 2 h ([2]; 2 hours): 14800 ng/mL
concentration at 6 h ([2]; 6 hours): 710 ng/mL
concentration at 0.083 h ([3]; 0.083 hours): 7370 ng/mL
concentration at 0.5 h ([3]; 0.5 hours): 10000 ng/mL
concentration at 2 h ([3]; 2 hours): 12500 ng/mL
concentration at 6 h ([3]; 6 hours): 5790 ng/mL
concentration at 24 h ([3]; 24 hours): 1250 ng/mL
Mice with loss of stretch reflex [4]: 3/3
Mice with loss of stretch reflex ([4]; listed as paclitaxel alone): recognized to lose stretch reflex in every mouse
